A short description of this data set: Solubility test. The class given is physicochemical. The conditions noted are these: for Amount of solvent for dissolving tested drug: about 10 mg tested drug. The protocol:
It should be noted that each crystalline form of Form A, Form B and Form C has similar solubility properties. Hereinafter, Form A0, B0 and C were chosen only for illustrative purpose.
1. Solubility test of the crystalline Form A of Temozolomide (Form A0 prepared by the method of EXAMPLE 1). Solubility properties were assayed respectively by using DMSO, methanol, water, glacial acetic acid, 0.1M HCl, 0.1M NaOH and ethanol as the solvents.
2. Solubility test of the crystalline form B of Temozolomide (Form B0 prepared by the method of EXAMPLE 6). Solubility properties were assayed respectively by using DMSO, methanol, water, glacial acetic acid, 0.1M HCl, 0.1M NaOH and ethanol as the solvents.
3. Solubility test of the crystalline form C of Temozolomide (Form C prepared by the method of EXAMPLE 14). Solubility properties were assayed respectively by using DMSO, methanol, water, glacial acetic acid, 0.1M HCl, 0.1M NaOH and ethanol as the solvents.

Structures are written as SMILES.

Take `Cn1nnc2c(C(N)=O)ncn2c1=O` [Form B, Temozolomide]: the “Amount of solvent for dissolving 1 g of tested drug” value (“Amount of solvent … of tested drug” for short) came out at 800 mL (solvent 0.1M HCl); 300 mL (solvent 0.1M NaOH); 70 mL (solvent DMSO); 5700 mL (solvent Ethanol); 300 mL (solvent Glacial acetic acid); 900 mL (solvent Methanol). Further, the “Amount of solvent … of tested drug” value (solvent Water) was determined as 800 mL. Also, the Solubility entry by setting is: (solvent 0.1M HCl) “Slightly soluble”; (solvent 0.1M NaOH) “Slightly soluble”; (solvent DMSO) “sparingly”; (solvent Ethanol) “Very slightly”; (solvent Glacial acetic acid) “Slightly soluble”; (solvent Methanol) “Slightly soluble”. Besides, the Solubility entry (solvent Water) was “Slightly soluble”. The “Amount of solvent for dissolving tested drug” value (solvent 0.1M HCl) amounted to 8 mL; the “Amount of solvent for dissolving tested drug” value (solvent 0.1M NaOH) amounted to 3 mL; the “Amount of solvent for dissolving tested drug” value (solvent DMSO) is 0.6 mL; the “Amount of solvent for dissolving tested drug” value (solvent Ethanol) is 57 mL; the “Amount of solvent for dissolving tested drug” value (solvent Glacial acetic acid) was found to be 3.0 mL; the “Amount of solvent for dissolving tested drug” value (solvent Methanol) was found to be 9.0 mL. Also, the “Amount of solvent for dissolving tested drug” value (solvent Water) came to 8.0 mL.
Regarding `Cn1nnc2c(C(N)=O)ncn2c1=O` [Form C, Temozolomide], the “Amount of solvent … of tested drug” value amounted to 800 mL (solvent 0.1M HCl); 300 mL (solvent 0.1M NaOH); 80 mL (solvent DMSO); 6000 mL (solvent Ethanol); 300 mL (solvent Glacial acetic acid); 800 mL (solvent Methanol). For the same molecule, where the note is “solvent Water”, the “Amount of solvent … of tested drug” value was found to be 800 mL. Also, the Solubility entry is listed as “Slightly soluble” (solvent 0.1M HCl); “Slightly soluble” (solvent 0.1M NaOH); “sparingly” (solvent DMSO); “Very slightly” (solvent Ethanol); “Slightly soluble” (solvent Glacial acetic acid); “Slightly soluble” (solvent Methanol). The Solubility entry (solvent Water) is on record as “Slightly soluble”. Also, the “Amount of solvent for dissolving tested drug” value by setting is: (solvent 0.1M HCl) 8.0 mL; (solvent 0.1M NaOH) 3.0 mL; (solvent DMSO) 0.8 mL; (solvent Ethanol) 60 mL; (solvent Glacial acetic acid) 3.0 mL; (solvent Methanol) 8.0 mL. For the same molecule, the “Amount of solvent for dissolving tested drug” value (solvent Water) was 8.0 mL.
In the case of `Cn1nnc2c(C(N)=O)ncn2c1=O` [Form A, Temozolomide], the “Amount of solvent … of tested drug” value reads like this: (solvent 0.1M HCl) 700 mL; (solvent 0.1M NaOH) 300 mL; (solvent DMSO) 70 mL; (solvent Ethanol) 5500 mL; (solvent Glacial acetic acid) 300 mL; (solvent Methanol) 700 mL. Further, the “Amount of solvent … of tested drug” value (solvent Water) was found to be 800 mL. The Solubility result (solvent 0.1M HCl) is reported as “Slightly soluble”; the Solubility result (solvent 0.1M NaOH) was “Slightly soluble”; the Solubility entry (solvent DMSO) is given as “sparingly”; the Solubility result (solvent Ethanol) is given as “Very slightly”; the Solubility result (solvent Glacial acetic acid) is “Slightly soluble”; the Solubility result (solvent Methanol) is “Slightly soluble”. The Solubility result (solvent Water) is listed as “Slightly soluble”. Besides, the “Amount of solvent for dissolving tested drug” value by setting is: (solvent 0.1M HCl) 7 mL; (solvent 0.1M NaOH) 3 mL; (solvent DMSO) 0.7 mL; (solvent Ethanol) 55 mL; (solvent Glacial acetic acid) 3.0 mL; (solvent Methanol) 7.0 mL. Further, where the note is “solvent Water”, the “Amount of solvent for dissolving tested drug” value amounted to 8.0 mL.

The values are drawn from patent US9714250B2, “Crystalline forms of temozolomide and the method for preparing same” (Jiangsu Tasly Diyi Pharmaceutical Co., Ltd., priority 2013, dated 2017).
